The results in this text go back to patent publication US8492384B2 (Korea Institute of Science and Technology, priority 2008, dated 2013).

For orientation: IC50 means the point on the concentration scale where inhibition reaches its midpoint.

What all share (assay type): cell-based
Assay [1] has as its target T1, α1G T-type calcium channels (Homo sapiens, UniProt O43497).
T1 construct: host or cells: HEK293
The assay is described as follows: T-type calcium channel activity using electrophysiological whole-cell patch-clamp technique. To be noted: percent inhibition of inward peak currents, HEK293 cells expressing α1G, head prints 100 μM. Background: Patch clamp records ionic current or voltage across a cell membrane.

Assay [2] deals with T1, α1G T-type calcium channels. Described as above. Particulars: HEK293 cells expressing α1G T-type calcium channels. The procedure: (§1) The novel compounds of the present invention presented as the formula 1 were tested for their antagonistic activities against T-type calcium channels using the methods described below. More specifically, the synthesized compounds were screened as follows: First, as a primary screening, the compounds having 40% or higher of antagonistic activities against T-type calcium channels were selected using the FDSS6000, a high throughput screening (HTS) device. Then, as a secondary screening, the IC50 (effective inhibitory concentration) values were obtained using the electrophysiological methods.
2) Methods for the Measurements of T-Type Calcium Channel Activity Using an Electrophysiological Whole-Cell Patch-Clamp Technique
HEK293 cells stably expressing T-type calcium channels were cultured in DMEM (Dulbecco's modified Eagle's medium) containing 10% (v/v) fetal bovine serum and 1% penicillin/streptomycin (v/v) in humidified 5% CO2 at 36.5° C. Cells expressing α1GT-type calcium channels were selected using G-418 (0.5 mg/mL) in the culture medium. The culture medium was replaced with a fresh one every 3-4 days, and cells were subcultured every week.
Cells were seeded onto the coverglass coated with poly-L-lysine (0.5 mg/mL) for the measurements of T-type calcium channel activity 2-7 days prior to the recordings. Whole-cell recordings of T-type calcium channel currents were performed using an EPC-9 patch clamp amplifier (HEKA, Germany). Whole-cell currents were recorded using micropipettes with resistance of 3-4 MΩ with the pipette (intracellular) solution containing (in mM): 130 KCl, 11 EGTA, 5 Mg-ATP, and 10 HEPES, pH to 7.4 and with the bath (extracellular) solution containing (in mM): 140 NaCl, 2 CaCl2, and 10 HEPES, pH to 7.4. The inward currents of T-type calcium channels were evoked by the test pulses of −30 mV for 50 ms at a holding potential of −100 mV every 10 seconds.
Each compound was dissolved in dimethylsulfoxide (DMSO) as 10 mM stock solutions and diluted in the bath solution to 10 μM (containing 0.1% DMSO). […] More specifically, each compound was perfused to the bath for about 30-60 seconds, and the inhibition of the inward peak currents by a test compound was calculated as a percent inhibition from which the IC50 values were determined.

The target is the same in assay [3]. Briefly: T-type calcium channel activity using the FDSS6000 (HTS, Fluo-3/AM, KCl-induced intracellular calcium change). Particulars: percent inhibition at 10 μM, HEK293 cells stably expressing α1G T-type calcium channels and Kir2.1, KCl 75 mM activation; for inhibition at 10 µM: read-out: FDSS (%, 10 μM). Here is the method: as §1
1) Methods for the Measurements of T-Type Calcium Channel Activity Using the FDSS6000
12 to 24 hours prior to the FDSS-based HTS assay, HEK293 cells stably expressing both α1G T-type calcium channels and Kir2.1 channels (α1G cell line: KCTC 10519BP, KRIBB (Korea Research Institute of Bioscience and Biotechnology) (GENE BANK) were seeded onto the 96-well plate coated with poly-L-lysine (0.05 mg/mL) at a density of 4×10^4 cells/well using a cell distributor (Titertek, USA). On the following day, the cells attached onto the 96-well plate were washed three times with a HEPES-buffered solution (150 mM NaCl, 5 mM KCl, 1 mM MgCl2, 2 mM CaCl2, 10 mM HEPES, 10 mM glucose, and pH 7.4) using an automatic 96-well plate washer (BioTek, USA), and then labeled with a fluorescent calcium indicator dye, Fluo-3/AM (5 μM) and 0.001% Pluronic F-127 in a HEPES-buffered solution at room temperature for 1 hour and then washed again with a HEPES-buffered solution twice. 10 minutes prior to the FDSS6000 measurements, the cells was washed with a HEPES-buffered solution containing 10 mM CaCl2 once and the final volume was adjusted.
In addition to the 96-well plates with cells, the two drug plates were prepared: one containing KCl (final concentration of 75 mM) for the activation of T-type calcium channels, and the other containing testing compounds (blocking agents of T-type calcium channels). Since most cell-based HTS devices are provided with a liquid application system for drug injection but not with a liquid absorption system, the KCl solution and the blocking agents for screening were prepared at concentrations five times higher than the final concentrations in the 10 mM CaCl2 HEPES-buffered solution, and then diluted in the cell plate, and the activities were measured. The specific method of the FDSS6000 measurements is as follows: For the FDSS6000 measurements, after the 20-sec baseline recordings, cells were preincubated with drugs for 75 seconds and the change in intracellular calcium concentration induced by KCl was measured. The percent inhibition by a test compound was calculated as integrated values of 340/380 fluorescent ratio of untreated and drug-treated cells. The control drug was 10 μM of Mibefradil®.
In details, cells were selectively exposed to 340 nm and 380 nm light excited by 4 xenon lamps installed in FDSS6000 using a computer-controlled filter wheel. The emitter fluorescence light through a 515 nm long-pass filter was passed by a freezing digital CCD camera mounted on the device. Data were collected every 1.23 seconds, and an average value of 340/380 fluorescent ratio for each well was obtained using a digital fluorescent analyzer. Data acquisition and analysis were performed using a program provided by Hamamatsu Photonics.
(In general: Calcium assays in cells follow changes in intracellular calcium, usually with a dye or a luminescent sensor.)

T1 sequence (O43497 whole entry): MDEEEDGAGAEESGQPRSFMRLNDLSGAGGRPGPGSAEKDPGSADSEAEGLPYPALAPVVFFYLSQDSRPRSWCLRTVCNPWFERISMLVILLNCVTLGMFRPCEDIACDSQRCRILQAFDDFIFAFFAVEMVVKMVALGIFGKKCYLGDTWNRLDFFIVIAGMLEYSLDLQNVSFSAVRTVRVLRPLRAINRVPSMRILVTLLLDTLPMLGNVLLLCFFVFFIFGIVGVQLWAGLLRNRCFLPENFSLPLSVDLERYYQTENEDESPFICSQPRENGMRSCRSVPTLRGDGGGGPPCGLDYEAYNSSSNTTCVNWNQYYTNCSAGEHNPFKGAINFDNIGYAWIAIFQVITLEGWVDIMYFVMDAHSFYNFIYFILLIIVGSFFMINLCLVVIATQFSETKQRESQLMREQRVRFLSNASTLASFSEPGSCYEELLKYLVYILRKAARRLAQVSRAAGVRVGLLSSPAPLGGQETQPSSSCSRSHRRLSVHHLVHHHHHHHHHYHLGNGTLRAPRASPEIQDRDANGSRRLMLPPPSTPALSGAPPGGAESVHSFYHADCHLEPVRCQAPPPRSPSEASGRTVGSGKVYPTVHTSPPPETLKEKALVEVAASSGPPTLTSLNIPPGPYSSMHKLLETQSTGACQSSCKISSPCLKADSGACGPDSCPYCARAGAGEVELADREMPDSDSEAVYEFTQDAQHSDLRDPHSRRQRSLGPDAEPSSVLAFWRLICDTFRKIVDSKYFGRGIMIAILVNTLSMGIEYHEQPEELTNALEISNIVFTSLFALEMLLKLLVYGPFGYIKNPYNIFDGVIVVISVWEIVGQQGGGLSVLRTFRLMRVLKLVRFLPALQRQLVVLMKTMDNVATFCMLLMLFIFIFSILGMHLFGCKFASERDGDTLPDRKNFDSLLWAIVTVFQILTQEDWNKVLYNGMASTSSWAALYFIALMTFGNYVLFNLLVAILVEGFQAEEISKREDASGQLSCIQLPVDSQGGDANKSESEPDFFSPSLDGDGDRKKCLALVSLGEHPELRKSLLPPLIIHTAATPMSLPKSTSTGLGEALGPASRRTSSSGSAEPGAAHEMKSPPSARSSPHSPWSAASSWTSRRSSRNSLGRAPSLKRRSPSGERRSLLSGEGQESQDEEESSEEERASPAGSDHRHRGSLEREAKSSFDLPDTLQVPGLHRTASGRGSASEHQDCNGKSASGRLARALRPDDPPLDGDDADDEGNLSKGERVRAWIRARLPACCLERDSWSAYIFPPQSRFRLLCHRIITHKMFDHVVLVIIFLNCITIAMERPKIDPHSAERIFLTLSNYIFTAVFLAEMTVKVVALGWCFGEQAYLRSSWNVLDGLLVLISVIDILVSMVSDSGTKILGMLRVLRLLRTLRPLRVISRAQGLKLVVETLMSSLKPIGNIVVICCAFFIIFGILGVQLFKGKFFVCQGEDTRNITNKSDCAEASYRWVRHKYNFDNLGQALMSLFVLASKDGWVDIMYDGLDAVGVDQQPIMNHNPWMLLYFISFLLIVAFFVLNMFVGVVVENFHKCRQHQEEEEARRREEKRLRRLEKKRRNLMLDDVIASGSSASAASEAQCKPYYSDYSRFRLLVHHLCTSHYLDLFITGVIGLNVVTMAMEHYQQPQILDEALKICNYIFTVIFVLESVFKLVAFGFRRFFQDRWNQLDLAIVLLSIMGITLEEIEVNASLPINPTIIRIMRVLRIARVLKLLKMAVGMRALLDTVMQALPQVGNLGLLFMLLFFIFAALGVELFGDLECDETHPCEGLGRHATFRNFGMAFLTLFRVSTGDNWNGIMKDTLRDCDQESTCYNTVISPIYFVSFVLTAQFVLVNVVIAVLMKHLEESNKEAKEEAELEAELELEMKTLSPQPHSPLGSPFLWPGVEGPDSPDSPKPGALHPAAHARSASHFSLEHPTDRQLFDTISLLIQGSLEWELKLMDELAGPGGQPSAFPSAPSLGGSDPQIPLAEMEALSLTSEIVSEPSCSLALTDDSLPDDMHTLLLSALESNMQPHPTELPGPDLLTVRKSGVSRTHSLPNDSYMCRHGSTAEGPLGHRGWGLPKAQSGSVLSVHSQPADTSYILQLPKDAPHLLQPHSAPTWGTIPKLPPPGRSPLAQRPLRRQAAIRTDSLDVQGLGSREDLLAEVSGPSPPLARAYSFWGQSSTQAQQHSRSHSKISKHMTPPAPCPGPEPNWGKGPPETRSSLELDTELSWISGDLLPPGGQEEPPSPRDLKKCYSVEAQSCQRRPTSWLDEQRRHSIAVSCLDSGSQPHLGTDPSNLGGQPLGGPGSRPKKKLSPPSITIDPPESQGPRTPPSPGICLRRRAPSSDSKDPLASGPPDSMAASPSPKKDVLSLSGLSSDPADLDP

Turning to `O=C(CCn1cnc(-c2ccccc2)c1)N1CCN(c2ccccc2F)CC1` [Compound No. 20, 1-N-[4-(2-fluorophenyl)piperazin-1-yl]carbonylethyl-4-phenylimidazole], the inhibition at 100 µM in assay [1] is 22.9 ± 1.4%. For the same compound, the IC50 in assay [2] amounted to 22.3 ± 1.46 µM. Moreover, in assay [3], the inhibition at 10 µM amounted to 45.2%.
Take `O=C(CCn1ccnc1-c1ccccc1)N1CCN(Cc2ccc(Cl)c(Cl)c2)CC1` [Compound No. 18, 1-N-[4-(3,4-dichlorobenzyl)piperazin-1-yl]carbonylethyl-2-phenylimidazole]: the inhibition at 100 µM in assay [1] was determined as 50 ± 0.6%. In assay [2], the IC50 is 9.36 ± 0.65 µM. Further, the inhibition at 10 µM in assay [3] turned out to be 39.3%.
In the case of “1-N-[4-(4-chlorophenyl)(phenyl)methylpiperazin-1-yl]carbonylethyl-4-methylimidazole [Compound No. 45]”, in assay [1], the “HEK293 (%, 100 μM)” value is 64.7 ± 2.2%. Further, the IC50 in assay [2] was found to be 5.46 ± 0.57 µM. The “FDSS (%, 10 μM)” value in assay [3] was 47.90%.
Turning to `O=C(CCn1cnc(-c2ccccc2)c1)N1CCN(Cc2ccc(Cl)cc2)CC1` [Compound No. 5, 1-N-[4-(4-chlorobenzyl)piperazin-1-yl]carbonylethyl-4-phenylimidazole], the inhibition at 100 µM in assay [1] amounted to 86.5 ± 1.8%. Further, the IC50 in assay [2] came out at 3 ± 0.26 µM. Moreover, the inhibition at 10 µM in assay [3] turned out to be 64.7%.
The matching figures for `O=C(CCn1cnc(-c2ccccc2)c1)N1CCN(c2cccc(Cl)c2)CC1` [Compound No. 25, 1-N-[4-(3-chlorophenyl)piperazin-1-yl]carbonylethyl-4-phenylimidazole]: 74.3 ± 1.3%, 4.35 ± 0.14 µM and 63.7%.
For `O=C(CCn1ccnc1-c1ccccc1)N1CCN(C(c2ccccc2)c2ccccc2)CC1` [Compound No. 13, 1-N-(4-diphenylmethylpiperazin-1-yl)carbonylethyl-2-phenylimidazole], in that order: 71.1 ± 3.3%, 3.67 ± 0.23 µM and 54.7%.
As for “1-N-{2-[4-(4-chlorophenyl) (phenyl)methylpiperazin-1-yl]ethyl}carbamoylethyl-2-phenylimidazole [Compound No. 63]”, the “HEK293 (%, 100 μM)” value in assay [1] is 89.1 ± 1.3%. The IC50 in assay [2] is 2.11 ± 0.11 µM. In assay [3], the “FDSS (%, 10 μM)” value is 58.64%.
On to `O=C(CCn1ccnc1-c1ccccc1)NCCN1CCN(C(c2ccccc2)c2ccccc2)CC1`, for which the inhibition at 100 µM in assay [1] worked out at 29.1 ± 1.7%. In addition, in assay [2], the IC50 came to 18 ± 0.92 µM. Moreover, the inhibition at 10 µM in assay [3] was determined as 60.8%.
With “1-N-{2-[4-(4-chlorophenyl) (phenyl)methylpiperazin-1-yl]ethyl}carbamoylethyl-4-phenylimidazole [Compound No. 64]”, the “HEK293 (%, 100 μM)” value in assay [1] was 95.8 ± 0.7%. The IC50 in assay [2] was 1.39 ± 0.07 µM. Besides, in assay [3], the “FDSS (%, 10 μM)” value was 60.48%.
For “1-N-[4-(4-chlorophenyl)(phenyl)methylpiperazin-1-yl]carbonylethyl-2-methylimidazole [Compound No. 46]”, in that order: 67.6 ± 1.3%, 4.97 ± 0.18 µM and 51.94%.
With `O=C(CCn1cnc(-c2ccccc2)c1)NCCN1CCN(C(c2ccccc2)c2ccccc2)CC1` [Compound No. 55, 1-N-[2-(4-diphenylmethylpiperazin-1-yl)ethyl]carbamoylethyl-4-phenylimidazole], the inhibition at 100 µM in assay [1] was 51.9 ± 0.1%. In addition, the IC50 in assay [2] is 8.66 ± 0.12 µM. Further, in assay [3], the inhibition at 10 µM was found to be 49.6%.
The matching figures for `O=C(CCn1ccnc1-c1ccccc1)NCCN1CCN(c2ccc(F)cc2)CC1` [Compound No. 74, 1-N-{2-[4-(4-fluorophenyl)piperazin-1-yl]ethyl}carbamoylethyl-2-phenylimidazole]: 37.6 ± 0.5%, 14.5 ± 0.68 µM and 49.8%.
Regarding `Cc1cccc(N2CCN(C(=O)CCn3cnc(-c4ccccc4)c3)CC2)c1C` [Compound No. 3, 1-N-[4-(2,3-dimethylphenyl)piperazin-1-yl]carbonylethyl-4-phenylimidazole], the inhibition at 100 µM in assay [1] turned out to be 64.7 ± 2.2%. Further, the IC50 in assay [2] was 4.89 ± 0.44 µM. Further, in assay [3], the inhibition at 10 µM is 55.5%.
